Measured values from US8415351B2 (priority 2007, dated 2013).
Like-named read-outs stand apart in the source and are kept apart here.

Columns and labels:
[1] = biological target: T1, HCV polymerase 1A (Δ21 NS5B, H77) (Hepatitis C virus genotype 1a, UniProt P27958); experiment: biochemical
T1 construct: 20 to 50 nM Δ21 NS5B
Protocol: (§1) HCV Polymerase Inhibition Assay
The reaction was initiated by the addition of 20 μM CTP, 20 μM ATP, 1 μM ^3H-UTP (10 mCi/umol), 5 nM template RNA and 0.1 U/μl RNase inhibitor (RNasin, Promega), and allowed to proceed for 2 to 4 h at room temperature. Reaction volume was 50 μl. The reaction was terminated by the addition of 1 volume of 4 mM spermine in 10 mM Tris-Cl pH 8.0, 1 mM EDTA. After incubation for at least 15 min at room temperature, the precipitated RNA was captured by filtering through a GF/B filter (Millipore) in a 96 well format. The filter plate was washed three times with 200 μl each of 2 mM spermine, 10 mM Tris-Cl pH 8.0, 1 mM EDTA, and 2 times with ethanol. After air-drying, 30 μl of Microscint 20 scintillation cocktail (Packard) was added to each well, and the retained cpm were determined by scintillation counting. […] Retained cpm were plotted vs. inhibitor concentration and fit to equation 1 using non-linear regression (ref. 1) to obtain the IC50 values: Retained cpm=A[sqrt{(IC50+It−Et)^2+4*IC50*Et}−(IC50+It−Et)]
Ref. Morrison, J. F. and S. R. Stone. […] Approaches to the study and analysis of the inhibition of enzymes by slow- and tight-binding inhibitors. Comments Mol. Cell. Biophys.
The sequence of the template RNA used was: 5′-[…]

[2] = biological target: T2, HCV polymerase 1B (Δ21 NS5B, BK) (Hepatitis C virus genotype 1b, UniProt P26663); experiment: biochemical
T2 construct: 20 to 50 nM Δ21 NS5B
Protocol: as §1
Either two-fold serial dilutions (fractional inhibition assay) or a narrower range of dilutions spanning the IC50 of the inhibitor (tight binding assay) of the inhibitors were incubated with 20 mM Tris-Cl pH 7.4, 2 mM MnCl2, 1 mM dithiothreitol, 1 mM ethylene diamine tetraacetic acid (EDTA), 60 to 125 μM GTP and 20 to 50 nM Δ21 NS5B (HCV Strain 1B (BK, Genbank accession number M58335, or H77, Genbank accession number AF011751)) for 15 min at room temperature. The reaction was initiated by the addition of 20 μM CTP, 20 μM ATP, 1 μM ^3H-UTP (10 mCi/umol), 5 nM template RNA and 0.1 U/μl RNase inhibitor (RNasin, Promega), and allowed to proceed for 2 to 4 h at room temperature. Reaction volume was 50 μl. The reaction was terminated by the addition of 1 volume of 4 mM spermine in 10 mM Tris-Cl pH 8.0, 1 mM EDTA. After incubation for at least 15 min at room temperature, the precipitated RNA was captured by filtering through a GF/B filter (Millipore) in a 96 well format. The filter plate was washed three times with 200 μl each of 2 mM spermine, 10 mM Tris-Cl pH 8.0, 1 mM EDTA, and 2 times with ethanol. After air-drying, 30 μl of Microscint 20 scintillation cocktail (Packard) was added to each well, and the retained cpm were determined by scintillation counting. […] Retained cpm were plotted vs. inhibitor concentration and fit to equation 1 using non-linear regression (ref. 1) to obtain the IC50 values: Retained cpm=A[sqrt{(IC50+It−Et)^2+4*IC50*Et}−(IC50+It−Et)]
Ref. Morrison, J. F. and S. R. Stone. 1985. Approaches to the study and analysis of the inhibition of enzymes by slow- and tight-binding inhibitors. Comments Mol. Cell. Biophys. 2: 347-368.
The sequence of the template RNA used was: 5′-[…] […] […] […] […] […] […] […] […] […] […] […] […] […] […] […] […]-3′ (SEQ ID NO: 1)

T2 sequence (P26663 2420-2989, stated change not applied): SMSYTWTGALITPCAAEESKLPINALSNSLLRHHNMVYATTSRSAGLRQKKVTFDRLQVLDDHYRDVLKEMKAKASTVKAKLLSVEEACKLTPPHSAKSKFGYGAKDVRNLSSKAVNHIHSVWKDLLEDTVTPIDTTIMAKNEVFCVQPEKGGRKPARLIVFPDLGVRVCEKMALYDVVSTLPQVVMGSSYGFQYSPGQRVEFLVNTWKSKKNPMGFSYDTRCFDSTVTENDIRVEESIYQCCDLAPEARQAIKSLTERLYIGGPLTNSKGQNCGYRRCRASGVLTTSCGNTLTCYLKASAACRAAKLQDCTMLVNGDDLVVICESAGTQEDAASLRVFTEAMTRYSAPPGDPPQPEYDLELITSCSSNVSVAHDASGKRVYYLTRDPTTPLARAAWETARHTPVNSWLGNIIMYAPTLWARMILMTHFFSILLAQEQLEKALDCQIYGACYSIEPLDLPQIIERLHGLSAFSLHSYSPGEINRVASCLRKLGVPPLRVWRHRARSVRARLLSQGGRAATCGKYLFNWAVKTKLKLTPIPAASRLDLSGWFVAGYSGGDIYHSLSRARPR
T1 sequence (P27958 2421-2990, stated change not applied): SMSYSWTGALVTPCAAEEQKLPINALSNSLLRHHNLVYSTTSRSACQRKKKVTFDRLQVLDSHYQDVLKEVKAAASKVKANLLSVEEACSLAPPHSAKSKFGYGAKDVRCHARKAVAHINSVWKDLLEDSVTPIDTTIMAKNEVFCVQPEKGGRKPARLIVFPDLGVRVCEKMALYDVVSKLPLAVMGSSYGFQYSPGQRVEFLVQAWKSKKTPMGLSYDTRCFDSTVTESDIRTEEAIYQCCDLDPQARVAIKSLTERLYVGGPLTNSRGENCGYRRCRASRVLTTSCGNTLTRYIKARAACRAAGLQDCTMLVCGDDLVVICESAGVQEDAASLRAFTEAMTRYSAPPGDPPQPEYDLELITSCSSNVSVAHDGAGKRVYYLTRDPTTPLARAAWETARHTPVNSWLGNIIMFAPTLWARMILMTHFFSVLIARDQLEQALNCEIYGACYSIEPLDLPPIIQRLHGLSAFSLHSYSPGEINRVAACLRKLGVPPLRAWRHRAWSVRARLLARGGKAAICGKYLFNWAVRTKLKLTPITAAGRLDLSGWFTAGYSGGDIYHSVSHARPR

Row | Structure (SMILES) | IC50 ([1]; IC50 1a) [nM] | IC50 [2] [nM] | IC50 ([1]; read-out: IC50 1a) [nM] | IC50 ([2]; HCV polymerase 1b, read-out: IC50 1b) [nM]
1 | COc1c(C(=O)Nc2ccc(N(C)S(C)(=O)=O)cc2)cc(N2CCC(=O)N(C)C2=O)cc1C(C)(C)C [IA-L3-1.25, 3-tert-butyl-N-[4-(methanesulfonyl-methyl-amino)-phenyl]-2-methoxy-5-(3-methyl-2,4-dioxo-tetrahydro-pyrimidin-1-yl)-benzamide] | > 1000 | > 1000 | – | –
2 | CC(C)(C)c1cc(N2CCC(=O)NC2=O)cc(NC(=O)c2ccc([N+](=O)[O-])cc2)c1O [IA-L4-1.5, N-(3-tert-butyl-5-(2,4-dioxotetrahydropyrimidin-1(2H)-yl)-2-hydroxyphenyl)-4-nitro benzamide] | – | – | > 1000 | > 1000
3 | CC(C)(C)OC(=O)N1CCN(Cc2cc(N3CCC(=O)NC3=O)cc(C(C)(C)C)c2O)CC1 [IA-L5-1-1.10, 4-[3-tert-butyl-5-(2,4-dioxo-tetrahydro-pyrimidin-1-yl)-2-hydroxy-benzyl]-piperazine-1-carboxylic acid tert-butyl ester] | > 1000 | > 1000 | – | –
4 | COc1c(C(=O)Nc2ccccc2S(N)(=O)=O)cc(N2CCC(=O)NC2=O)cc1C(C)(C)C [IA-L3-1.80, 3-tert-butyl-5-(2,4-dioxotetrahydropyrimidin-1(2H)-yl)-2-methoxy-N-(2-sulfamoylphenyl)benzamide] | > 1000 | > 1000 | – | –
5 | CS(=O)(=O)Nc1ccc(NC(=O)c2cc(N3CCC(=O)NC3=O)ccc2O)cc1 [IA-L3-1.114, 5-(2,4-dioxotetrahydropyrimidin-1(2H)-yl)-2-hydroxy-N-(4-(methylsulfonamido)phenyl)benzamide] | > 1000 | > 1000 | – | –
6 | CCN(Cc1cc(N2CCC(=O)NC2=O)cc(C(C)(C)C)c1O)C1CCCCC1 [IA-L9-1.1, 1-(3-tert-butyl-5-((cyclohexyl(ethyl)amino)methyl)-4-hydroxyphenyl)dihydropyrimidine-2,4(1H,3H)-dione 2,2,2-trifluoroacetate] | > 1000 | > 1000 | – | –
7 | COc1c(C(=O)Nc2ccc(NC(=O)OC(C)(C)C)cc2)cc(N2CCC(=O)NC2=O)cc1C(C)(C)C [IA-L3-1.50, Tert-butyl 4-(3-tert-butyl-5-(2,4-dioxotetrahydropyrimidin-1(2H)-yl)-2-methoxybenzamido)-phenylcarbamate] | > 1000 | > 1000 | – | –
8 | COc1c(NC(=O)c2ccc(CS(C)(=O)=O)cc2)cc(N2CCC(=O)NC2=O)cc1C(C)(C)C [IA-L4-1.10, N-(3-tert-butyl-5-(2,4-dioxotetrahydropyrimidin-1(2H)-yl)-2-methoxyphenyl)-4-(methylsulfonylmethyl)benzamide] | > 1000 | > 1000 | – | –
9 | CC(C)(C)c1cc(N2CCC(=O)NC2=O)cc(NC(=O)c2ccc(N)cc2)c1O [IA-L4-1.6, 4-amino-N-(3-tert-butyl-5-(2,4-dioxotetrahydropyrimidin-1(2H)-yl)-2-hydroxyphenyl)benzamide] | > 1000 | > 1000 | – | –
10 | CC(C)(C)c1cc(N2CCC(=O)NC2=O)cc(CNc2ccc(NS(C)(=O)=O)cc2)c1O [IA-L9-1.3, N-(4-(3-tert-butyl-5-(2,4-dioxotetrahydropyrimidin-1(2H)-yl)-2-hydroxybenzylamino)phenyl)methanesulfonamide] | > 1000 | > 1000 | – | –
11 | COc1c(C(=O)Nc2ccc(N(C(=O)OCC(C)C)S(C)(=O)=O)cc2)cc(N2CCC(=O)NC2=O)cc1C(C)(C)C [IA-L3-1.76, Isobutyl 4-(3-tert-butyl-5-(2,4-dioxotetrahydropyrimidin-1(2H)-yl)-2-methoxybenzamido) phenyl(methylsulfonyl)carbamate] | > 1000 | > 1000 | – | –
12 | COc1c(C(=O)Nc2ccc(NC(=O)COC(C)=O)cc2)cc(N2CCC(=O)NC2=O)cc1C(C)(C)C [IA-L3-1.48, 2-(4-(3-tert-butyl-5-(2,4-dioxotetrahydropyrimidin-1(2H)-yl)-2-methoxybenzamido)phenyl-amino)-2-oxoethyl acetate] | > 1000 | > 1000 | – | –
13 | CC1CN(Cc2cc(N3CCC(=O)NC3=O)cc(C(C)(C)C)c2O)CC(C)O1 (centres unmarked) [IA-L5-1-1.13, 1-(3-tert-butyl-5-((2,6-dimethylmorpholino)methyl)-4-hydroxyphenyl)dihydro pyrimidine-2,4(1H,3H)-dione 2,2,2-trifluoroacetate] | > 1000 | > 1000 | – | –
14 | COc1c(C(=O)Nc2ccc(N(COC(=O)C(C)(C)C)S(C)(=O)=O)cc2)cc(N2CCC(=O)NC2=O)cc1C(C)(C)C [IA-L3-1.65, (N-(4-(3-tert-butyl-5-(2,4-dioxotetrahydropyrimidin-1(2H)-yl)-2-methoxybenzamido)phenyl)methylsulfonamido)methyl pivalate] | > 1000 | > 1000 | – | –
15 | C=CCN(c1ccc(NC(=O)c2cc(N3CCC(=O)NC3=O)cc(C(C)(C)C)c2OC)cc1)S(C)(=O)=O [IA-L3-1.108, N-(4-(N-allylmethylsulfonamido)phenyl)-3-tert-butyl-5-(2,4-dioxotetrahydropyrimidin-1(2H)-yl)-2-methoxybenzamide] | > 1000 | > 1000 | – | –
16 | C=CCN1C(=O)CCN(c2cc(C(=O)Nc3ccc(N(CC=C)S(C)(=O)=O)cc3)c(OC)c(C(C)(C)C)c2)C1=O [IA-L3-1.118, 5-(3-allyl-2,4-dioxotetrahydropyrimidin-1(2H)-yl)-N-(4-(N-allylmethylsulfonamido)phenyl)-3-tert-butyl-2-methoxybenzamide] | > 1000 | > 1000 | – | –
17 | COC(=O)Nc1ccc(NC(=O)c2cc(N3CCC(=O)NC3=O)cc(C(C)(C)C)c2OC)cc1 [IA-L3-1.49, Methyl 4-(3-tert-butyl-5-(2,4-dioxotetrahydropyrimidin-1(2H)-yl)-2-methoxybenzamido) phenylcarbamate] | > 1000 | > 1000 | – | –
18 | CN(Cc1cc(N2CCC(=O)NC2=O)cc(C(C)(C)C)c1O)C1CCCCC1 [IA-L9-1.2, 1-(3-tert-butyl-5-((cyclohexyl(methyl)amino)methyl)-4-hydroxyphenyl)dihydro pyrimidine-2,4(1H,3H)-dione 2,2,2-trifluoroacetate] | > 1000 | > 1000 | – | –
19 | COc1c(C(=O)Nc2ccc(N(C(=O)C(C)C)S(C)(=O)=O)cc2)cc(N2CCC(=O)NC2=O)cc1C(C)(C)C [IA-L3-1.72, 3-tert-butyl-5-(2,4-dioxotetrahydropyrimidin-1(2H)-yl)-2-methoxy-N-(4-(N-(methylsulfonyl)isobutyramido)phenyl)benzamide] | > 1000 | > 1000 | – | –
20 | COc1c(-c2nc3cc(N(S(C)(=O)=O)S(C)(=O)=O)ccc3[nH]2)cc(N2CCC(=O)NC2=O)cc1C(C)(C)C [IA-L0-2.10, N-(2-(3-tert-butyl-5-(2,4-dioxotetrahydropyrimidin-1(2H)-yl)-2-methoxyphenyl)-1H-benzo[d]imidazol-5-yl)-N-(methylsulfonyl)methanesulfonamide] | > 1000 | > 1000 | – | –
21 | COc1c(C(=O)Nc2ccc3c(c2)CS(=O)(=O)C3)cc(N2CCC(=O)NC2=O)cc1C(C)(C)C [IA-L3-2.3, 3-tert-butyl-N-(2,2-dioxo-1,3-dihydrobenzo[c]thiophen-5-yl)-5-(2,4-dioxotetrahydropyrimidin-1(2H)-yl)-2-methoxybenzamide] | > 1000 | > 1000 | – | –
22 | CCOC(=O)N(c1ccc(NC(=O)c2cc(N3CCC(=O)NC3=O)cc(C(C)(C)C)c2OC)cc1)S(C)(=O)=O [IA-L3-1.74, Ethyl 4-(3-tert-butyl-5-(2,4-dioxotetrahydropyrimidin-1(2H)-yl)-2-methoxybenzamido)-phenyl(methylsulfonyl)carbamate] | > 1000 | > 1000 | – | –
